“Also recorded” adds a separate entry of the source. Like-named read-outs stand apart in the source and are kept apart here.
Assay: Single oral dose plasma pharmacokinetics in fasted and fed healthy subjects (food effect, ethnicity)
Format: in vivo, human
Conditions: for AUC % extrap: both fed and fasted conditions; for AUC(0-t) / AUC(0-inf) / Cmax / Tmax / Vd/F / half-life: both sexes, human, plasma, po; for Vd/F: read-out: Vz/F, GeoMean; for half-life: read-out: t½, GeoMean (converted)
Procedure: Compound 1 pharmacokinetics were analyzed in healthy subjects administered Compound 1 in a fasted state. A subject was considered fasted if the subject fasted overnight for at least 10 hours and water was permitted ad libitum except for 1 hour before and after drug administration. For fasted subjects, Compound 1 was administered with at least 8 ounces (240 mL) of water. Compound 1 pharmacokinetics were also analyzed in healthy subjects administered Compound 1 in a fed state. A subject was considered fed after consuming a high-fat meal 30 minutes prior to drug administration, and the meal was finished at least 5 minutes prior to drug administration. For both fasted and fed subjects, no food was permitted for at least 4 hours post-dose and water was permitted starting at 1 hour post-dose.
Subjects were healthy, non-smoking male and female Caucasian/non-Asian or Japanese participants 18 to 55 years of age with a BMI between […].
In Part 1 of the study, analysis was performed to compare 1000 mg Compound 1 in fed and fasted states. A dose of 1000 mg of Compound 1 consisted of two 500 mg tablets administered as a single oral dose. The analysis of Part 1 was performed at two separate time points in two different schemes (1A and 1B).
In scheme 1A, at period 1, Compound 1 analyzed in healthy subjects administered 1000 mg Compound 1 (n=3) in a fed state. Following a washout period of 7-9 days, these subjects were then administered 1000 mg Compound 1 in a fasted state.
Separately, in scheme 1B, at period 1, Compound 1 was analyzed in healthy subjects administered 1000 mg Compound 1 (n=3) in a fasted state. Following a washout period of 7-9 days, these subjects were then administered 1000 mg Compound 1 in a fed state.
In Part 2 of the study, analysis was performed to compare 2000 mg Compound 1 in fed and fasted states and also to compared ethnicity of Caucasian/non-Asian subjects and Japanese subjects. A dose of 2000 mg of Compound 1 consisted of four 500 mg tablets administered as a single oral dose.
For Caucasian/non-Asian subjects (n=20) the analysis was performed at two separate time points in two different schemes (2A and 2B). During scheme 2A, at period 1, Compound 1 was analyzed in subjects administered 2000 mg Compound 1 (n=10) in a fed state. Following a washout period of 7-9 days, at period 2, these subjects were then administered 2000 mg Compound 1 in a fasted state. Separately in scheme 2B, at period 1, Compound 1 was analyzed in subjects administered 2000 mg Compound 1 (n=10) in a fasted state. Following a washout period of 7-9 days, at period 2, these subjects were then administered 2000 mg Compound 1 in a fed state.
For Japanese subjects (n=6), Compound 1 pharmacokinetics were analyzed in subjects administered 2000 mg Compound 1 in a fasted state.
Blood for the analysis of study drug (Compound 1) and metabolite (M1) were collected.
Various pharmacokinetic (PK) parameters were determined for each subject. (Tables 9-12 and FIGS. 23-28).
Statistical analysis of Compound 1 plasma PK parameters were evaluated for food effects for Part 1 (Table 11) and Part 2 (Table 12). The log-transformed PK parameters were analyzed using an analysis of variance model with treatment (fed/fasted condition) and period as fixed effects and participant as a random effect.

[1] = 2000 mg oral, Fasted, Caucasian/Non-Asian
[2] = 2000 mg oral, Fed, Caucasian/Non-Asian
[3] = 1000 mg, 1000 mg oral, Fasted (Part 1)
[4] = 1000 mg, 1000 mg oral, Fed (Part 1)
[5] = 2000 mg, 2000 mg oral, Fasted, Caucasian/Non-Asian
[6] = 2000 mg, 2000 mg oral, Fasted, Japanese
[7] = 2000 mg, 2000 mg oral, Fed, Caucasian/Non-Asian

CNC(=O)c1ccc(NCC#Cc2cc3c(N[C@@H]4CCN(C)C[C@@H]4F)cccc3n2CC(F)(F)F)c(OC)c1 [Compound 1, 4-((3-(4-(((3S,4R)-3-fluoro-1-methylpiperidin-4-yl)amino)-1-(2,2,2-trifluoroethyl)-1H-indol-2-yl)prop-2-yn-1-yl)amino)-3-methoxy-N-methylbenzamide]
Plasma CL/F and Vz/F, fasted vs fed (1000 mg (Part 1)): slightly higher in the fasted condition
Mean plasma concentrations, fed vs fasted (1000 mg and 2000 mg doses): higher for Caucasian/non-Asian participants under the fed condition compared to the fasted condition
AUC0-inf, % Ratio (Fed/Fasted) (1000 mg oral (Part 1)): 120.25%
AUC0-last, % Ratio (Fed/Fasted) (1000 mg oral (Part 1)): 120.21%
Cmax, % Ratio (Fed/Fasted) (1000 mg oral (Part 1)): 121.75%
AUC% extrap, GeoMean (1000 mg oral, Fasted (Part 1)): 1.61%
CL/F, GeoMean (1000 mg oral, Fasted (Part 1)): 6.67 L/h
λz, GeoMean (1000 mg oral, Fasted (Part 1)): 0.0450 h⁻¹
AUC0-last, GeoMean (1000 mg oral, Fed (Part 1)): 177 µg·h/mL
AUC% extrap, GeoMean (1000 mg oral, Fed (Part 1)): 1.61%
CL/F, GeoMean (1000 mg oral, Fed (Part 1)): 5.55 L/h
λz, GeoMean (1000 mg oral, Fed (Part 1)): 0.0438 h⁻¹
increase of peak exposure (Cmax) with food (high-fat meal) vs fasted (1000 mg single dose): approximately 22%
increase of systemic exposure (AUC0-inf and AUC0-last) with food (high-fat meal) vs fasted (1000 mg single dose): approximately 20%
AUC % extrap (1000 mg): less than 5%
AUC0-inf, % Ratio (Fed/Fasted) (2000 mg oral (Part 2)): 178.74%
AUC0-last, % Ratio (Fed/Fasted) (2000 mg oral (Part 2)): 172.94%
Cmax, % Ratio (Fed/Fasted) (2000 mg oral (Part 2)): 183.82%
AUC% extrap, GeoMean [1]: 3.42%
CL/F, GeoMean [1]: 7.71 L/h
λz, GeoMean [1]: 0.0348 h⁻¹
AUC0-last, GeoMean (2000 mg oral, Fasted, Japanese): 326 µg·h/mL
AUC% extrap, GeoMean (2000 mg oral, Fasted, Japanese): 2.13%
CL/F, GeoMean (2000 mg oral, Fasted, Japanese): 5.92 L/h
λz, GeoMean (2000 mg oral, Fasted, Japanese): 0.0398 h⁻¹
AUC0-last, GeoMean [2]: 448 µg·h/mL
AUC% extrap, GeoMean [2]: 4.74%
CL/F, GeoMean [2]: 4.18 L/h
λz, GeoMean [2]: 0.0306 h⁻¹
increase of AUC0-inf with food (high-fat meal) vs fasted (2000 mg single dose): 79%
increase of AUC0-last with food (high-fat meal) vs fasted (2000 mg single dose): 73%
increase of peak exposure (Cmax) with food (high-fat meal) vs fasted (2000 mg single dose): approximately 84%
Plasma CL/F and Vz/F, fasted vs fed (2000 mg, Caucasian/non-Asian (Part 2)): slightly higher in the fasted condition
AUC % extrap (2000 mg, Caucasian/non-Asian): less than 17%
Mean plasma concentrations, Japanese vs Caucasian/non-Asian (2000 mg, fasted): higher in Japanese participants compared to Caucasian/non-Asian participants
Plasma CL/F and Vz/F, Japanese vs Caucasian/non-Asian (2000 mg, fasted): numerically lower for Japanese participants
peak exposure (Cmax) and systemic exposure (AUC), Japanese vs Caucasian/non-Asian (2000 mg, fasted): numerically higher in Japanese participants
maximum exposure (Cmax) and systemic exposure (AUC), fed vs fasted (Caucasian/non-Asian participants): higher under fed conditions (high-fat meal) compared to fasted conditions
AUC(0-t) (1000 mg, 1000 mg oral, Fasted (Part 1), read-out: AUC0-24, GeoMean): 97.9 µg·h/mL
AUC(0-t) (1000 mg, 1000 mg oral, Fasted (Part 1), read-out: AUC0-96, GeoMean): 148 µg·h/mL
AUC(0-inf) (1000 mg, 1000 mg oral, Fasted (Part 1), read-out: AUC0-inf, GeoMean): 150 µg·h/mL
AUC(0-inf) (1000 mg, 1000 mg oral, Fasted (Part 1), read-out: AUC0-inf, Geometric Mean (analysis of variance model)): 150 µg·h/mL
AUC(0-t) (1000 mg, 1000 mg oral, Fasted (Part 1), read-out: AUC0-last, GeoMean): 147 µg·h/mL
AUC(0-t) (1000 mg, 1000 mg oral, Fasted (Part 1), read-out: AUC0-last, Geometric Mean (analysis of variance model)): 147 µg·h/mL
Cmax (1000 mg, 1000 mg oral, Fasted (Part 1), read-out: Cmax, GeoMean): 8690 ng/mL
Cmax (1000 mg, 1000 mg oral, Fasted (Part 1), read-out: Cmax, Geometric Mean (analysis of variance model)): 8690 ng/mL
Tmax (1000 mg, 1000 mg oral, Fasted (Part 1), read-out: Tmax, Median): 2.27 h
Tmax (1000 mg, 1000 mg oral, Fasted (Part 1), read-out: Tmax, Minimum, Maximum): 1.54 to 2.51 h
Vd/F [3]: 148 L
half-life [3]: 924 min
AUC(0-t) (1000 mg, 1000 mg oral, Fed (Part 1), read-out: AUC0-24, GeoMean): 119 µg·h/mL
AUC(0-t) (1000 mg, 1000 mg oral, Fed (Part 1), read-out: AUC0-96, GeoMean): 177 µg·h/mL
AUC(0-inf) (1000 mg, 1000 mg oral, Fed (Part 1), read-out: AUC0-inf, GeoMean): 180 µg·h/mL
AUC(0-inf) (1000 mg, 1000 mg oral, Fed (Part 1), read-out: AUC0-inf, Geometric Mean (analysis of variance model)): 180 µg·h/mL
AUC(0-t) (1000 mg, 1000 mg oral, Fed (Part 1), read-out: AUC0-last, GeoMean): 177 µg·h/mL
AUC(0-t) (1000 mg, 1000 mg oral, Fed (Part 1), read-out: AUC0-last, Geometric Mean (analysis of variance model)): 177 µg·h/mL
Cmax (1000 mg, 1000 mg oral, Fed (Part 1), read-out: Cmax, GeoMean): 10600 ng/mL
Cmax (1000 mg, 1000 mg oral, Fed (Part 1), read-out: Cmax, Geometric Mean (analysis of variance model)): 10600 ng/mL
Tmax (1000 mg, 1000 mg oral, Fed (Part 1), read-out: Tmax, Median): 3.25 h
Tmax (1000 mg, 1000 mg oral, Fed (Part 1), read-out: Tmax, Minimum, Maximum): 1.51 to 5.01 h
Vd/F [4]: 127 L
half-life [4]: 948 min
AUC(0-inf) (2000 mg, 2000 mg oral, Fasted (Part 2), read-out: AUC0-inf, Geometric Mean (analysis of variance model)): 260 µg·h/mL
AUC(0-t) (2000 mg, 2000 mg oral, Fasted (Part 2), read-out: AUC0-last, Geometric Mean (analysis of variance model)): 259 µg·h/mL
Cmax (2000 mg, 2000 mg oral, Fasted (Part 2), read-out: Cmax, Geometric Mean (analysis of variance model)): 10400 ng/mL
AUC(0-t) (2000 mg, 2000 mg oral, Fasted, Caucasian/Non-Asian, read-out: AUC0-24, GeoMean): 138 µg·h/mL
AUC(0-t) (2000 mg, 2000 mg oral, Fasted, Caucasian/Non-Asian, read-out: AUC0-96, GeoMean): 255 µg·h/mL
AUC(0-inf) (2000 mg, 2000 mg oral, Fasted, Caucasian/Non-Asian, read-out: AUC0-inf, GeoMean): 259 µg·h/mL
AUC(0-t) (2000 mg, 2000 mg oral, Fasted, Caucasian/Non-Asian, read-out: AUC0-last, GeoMean): 254 µg·h/mL
Cmax (2000 mg, 2000 mg oral, Fasted, Caucasian/Non-Asian, read-out: Cmax, GeoMean): 10300 ng/mL
Tmax (2000 mg, 2000 mg oral, Fasted, Caucasian/Non-Asian, read-out: Tmax, Median): 2.52 h
Tmax (2000 mg, 2000 mg oral, Fasted, Caucasian/Non-Asian, read-out: Tmax, Minimum, Maximum): 1.03 to 5.94 h
Vd/F [5]: 212 L
half-life [5]: 1190 min
AUC(0-t) (2000 mg, 2000 mg oral, Fasted, Japanese, read-out: AUC0-24, GeoMean): 193 µg·h/mL
AUC(0-t) (2000 mg, 2000 mg oral, Fasted, Japanese, read-out: AUC0-96, GeoMean): 326 µg·h/mL
AUC(0-inf) (2000 mg, 2000 mg oral, Fasted, Japanese, read-out: AUC0-inf, GeoMean): 338 µg·h/mL
AUC(0-t) (2000 mg, 2000 mg oral, Fasted, Japanese, read-out: AUC0-last, GeoMean): 326 µg·h/mL
Cmax (2000 mg, 2000 mg oral, Fasted, Japanese, read-out: Cmax, GeoMean): 14700 ng/mL
Tmax (2000 mg, 2000 mg oral, Fasted, Japanese, read-out: Tmax, Median): 3.94 h
Vd/F [6]: 149 L
half-life [6]: 1040 min
AUC(0-inf) (2000 mg, 2000 mg oral, Fed (Part 2), read-out: AUC0-inf, Geometric Mean (analysis of variance model)): 465 µg·h/mL
AUC(0-t) (2000 mg, 2000 mg oral, Fed (Part 2), read-out: AUC0-last, Geometric Mean (analysis of variance model)): 449 µg·h/mL
Cmax (2000 mg, 2000 mg oral, Fed (Part 2), read-out: Cmax, Geometric Mean (analysis of variance model)): 19100 ng/mL
AUC(0-t) (2000 mg, 2000 mg oral, Fed, Caucasian/Non-Asian, read-out: AUC0-24, GeoMean): 250 µg·h/mL
AUC(0-t) (2000 mg, 2000 mg oral, Fed, Caucasian/Non-Asian, read-out: AUC0-96, GeoMean): 448 µg·h/mL
AUC(0-inf) (2000 mg, 2000 mg oral, Fed, Caucasian/Non-Asian, read-out: AUC0-inf, GeoMean): 479 µg·h/mL
AUC(0-t) (2000 mg, 2000 mg oral, Fed, Caucasian/Non-Asian, read-out: AUC0-last, GeoMean): 448 µg·h/mL
Cmax (2000 mg, 2000 mg oral, Fed, Caucasian/Non-Asian, read-out: Cmax, GeoMean): 19000 ng/mL
Tmax (2000 mg, 2000 mg oral, Fed, Caucasian/Non-Asian, read-out: Tmax, Median): 4.03 h
Tmax (2000 mg, 2000 mg oral, Fed, Caucasian/Non-Asian, read-out: Tmax, Minimum, Maximum): 2.11 to 8.08 h
Vd/F [7]: 137 L
half-life [7]: 1360 min
plasma concentration-time profile (single oral doses): reached the maximum peak rapidly and declined roughly in a bi-exponential manner; also recorded: rapidly absorbed
